According to ChEMBL document CHEMBL5385851, “Natural quinazolinones: From a treasure house to promising anticancer leads” (Eur J Med Chem, 2023):
In brackets after ≈: the same amount, converted by molar mass. Blank lines part the entries; values can stand above or below the molecule they belong to.

Tests used:
HL-60 [1] = assay: Antiproliferative activity against human HL-60 cells assessed as cell growth inhibition incubated for 72 hrs by MTT assay; assay type: functional, cell-based; conditions: HL-60, 72 h
HCT-116 = assay: Antiproliferative activity against human HCT-116 cells assessed as reduction in cell proliferation; assay type: functional, cell-based
HeLa = assay: Cytotoxicity against human HeLa cells assessed as reduction in cell growth incubated for 48 hrs by MTT assay; assay type: functional, cell-based
MCF7 = assay: Cytotoxicity against human MCF7 cells assessed as reduction in cell growth incubated for 5 days by MTT assay; assay type: functional, cell-based; conditions: MCF7, 120 h
NCI/ADR-RES [2] = assay: Antiproliferative activity against human NCI-ADR-RES cells assessed as inhibition of cell growth measured after 48 hrs by SRB assay; assay type: functional, cell-based
Hs-578T = assay: Cytotoxicity against human Hs-578T cells assessed as cell growth inhibition; assay type: functional, cell-based
A549 [3] = assay: Cytotoxicity against human A549 cells assessed as reduction in cell viability incubated for 72 hrs by MTT assay; assay type: functional, cell-based; conditions: A549, 72 h
786-0 = assay: Cytotoxicity against human 786-0 cells assessed as cell growth inhibition; assay type: functional
A549 [4] = assay: Cytotoxicity against human A549 cells assessed as cell growth inhibition; assay type: functional
NCI/ADR-RES [5] = assay: Growth inhibition of human MCF7ADR cells; assay type: functional
U-251 [6] = assay: Growth inhibition of human U-251 cells; assay type: functional
SW-620 = assay: Growth inhibition of human SW620 cells; assay type: functional
NCI-H522 = assay: Growth inhibition of human NCI-H522 cells; assay type: functional
M14 = assay: Growth inhibition of human M14 cells; assay type: functional
SK-OV-3 = assay: Growth inhibition of human SK-OV-3 cells by sulforhodamine B assay; assay type: functional
DU-145 = assay: Growth inhibition of human DU-145 cells by sulforhodamine B assay; assay type: functional
A498 = assay: Growth inhibition of human A498 cells by SRB method; assay type: functional
U-937 = assay: Cytotoxicity against human U-937 cells assessed reduction in cell growth incubated for 48 hrs by MTT assay; assay type: functional, cell-based; conditions: U-937, 48 h
K562 = assay: Cytotoxicity against human K562 cells assessed reduction in cell growth incubated for 48 hrs by MTT assay; assay type: functional, cell-based; conditions: K562, 48 h
[7] = Antiproliferative activity against human LA-N-1 cells assessed as cell growth inhibition; assay type: functional, cell-based; conditions: LAN1
SH-SY5Y = assay: Cytotoxicity against human SH-SY5Y cells assessed as reduction in cell viability; assay type: functional, cell-based
SK-N-DZ = assay: Anticancer activity against human SK-N-DZ cells assessed as cell growth inhibition measured after 72 hrs by DAPI staining based analysis; assay type: functional
A-431 = assay: Anticancer activity against human A-431 cells assessed as reduction of cell viability incubated for 48 hrs by MTT assay; assay type: functional, cell-based; conditions: A-431, 48 h
[8] = target: Indoleamine 2,3-dioxygenase 1 (Homo sapiens, UniProt P14902); assay: Inhibition of IDO1 in HEK293 cells; assay type: cell-based
Sequence of Indoleamine 2,3-dioxygenase 1 (P14902 whole entry): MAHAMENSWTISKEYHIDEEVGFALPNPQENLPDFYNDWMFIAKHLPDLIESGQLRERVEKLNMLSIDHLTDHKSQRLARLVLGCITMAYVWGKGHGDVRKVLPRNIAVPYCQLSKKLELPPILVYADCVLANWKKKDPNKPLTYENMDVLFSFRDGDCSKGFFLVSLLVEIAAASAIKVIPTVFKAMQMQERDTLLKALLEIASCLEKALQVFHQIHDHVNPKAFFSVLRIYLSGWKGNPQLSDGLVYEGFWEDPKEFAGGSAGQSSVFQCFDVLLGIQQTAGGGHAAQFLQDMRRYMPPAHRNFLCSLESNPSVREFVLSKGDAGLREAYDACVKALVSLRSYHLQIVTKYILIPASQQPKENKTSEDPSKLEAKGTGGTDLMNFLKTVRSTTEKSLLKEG

OVCAR-4 = assay: Cytotoxicity against human OVCAR-4 cells assessed as cell growth inhibition; assay type: functional
HL-60 [9] = assay: Cytotoxicity against human HL-60 cells assessed as reduction in cell growth incubated for 48 hrs by MTT assay; assay type: functional, cell-based; conditions: HL-60, 48 h
NCI-N87 = assay: Cytotoxicity against human NCI-N87 cells measured after 72 hrs by Celltiter-Glo assay; assay type: functional, cell-based; conditions: NCI-N87, 72 h
NCI-H460 = assay: Cytotoxicity against human NCI-H460 cells assessed as cell growth inhibition; assay type: functional
ACHN [10] = assay: Growth inhibition of human ACHN cells; assay type: functional
MGC-803 = assay: Antiproliferative activity against human MGC-803 cells assessed as reduction in cell viability by MTT assay; assay type: functional, cell-based
U-251 [11] = assay: Growth inhibition of human U-251 cells incubated for 48 hrs by SRB assay; assay type: functional
ACHN [12] = assay: Growth inhibition of human ACHN cells incubated for 48 hrs by SRB assay; assay type: functional

GI50 (U-251 [6]): 100 µM
GI50 (SW-620): 5 µM
GI50 (NCI-H522): 15 µM
GI50 (SK-OV-3): 2.5 µM
GI50 (DU-145): 0.4 µM
IC50 (SK-N-DZ): 14 µM
IC50 (A-431): 9 µM
Compound: O=C1c2ccccc2-n2c1nc1ccccc1c2=O [TRYPTANTHRIN]
GI50 (NCI/ADR-RES [5]): 30 µM
GI50 (M14): 15 µM
GI50 (A498): 0.95 µM
IC50 (U-937): 3.1 mg/L (≈ 12.5 µM)
IC50 (K562): 6.3 mg/L (≈ 25.4 µM)
IC50 [7]: 15.8 µM
IC50 (SH-SY5Y): 22 µM

IC50 [8]: 0.0243 µM
Compound: O=C1c2ccccc2N[C@H]2[C@H](O)C3C=C(F)C=CC3N12 (some centres not stated)

GI50 (ACHN [10]): 0.08 µM
Compound: CSc1ccc2[nH]c3c(c2c1)CCN1C(=O)c2ccccc2NC31 (configuration not stated)

GI50 (U-251 [11]): 0.3 µM
GI50 (ACHN [12]): 0.4 µM
Compound: CN1c2ccccc2C(=O)N2CCc3c([nH]c4ccc(Br)cc34)C21 (configuration not stated)

The next lines start with the molecule.

Compound: O=c1c2ccccc2nc2n1Cc1cc3ccccc3nc1-2 [LUOTONIN A]
IC50 (HL-60 [1]): > 100 µM
IC50 (HCT-116): 51.1 µM
IC50 (HeLa): 3 µM
IC50 (MCF7): 3 µM
IC50 (NCI/ADR-RES [2]): 3 µM

Compound: COC1c2cc3ccccc3nc2-c2nc3ccccc3c(=O)n21 (configuration not stated)
IC50 (Hs-578T): 9 mg/L (≈ 28.5 µM)

Compound: O=c1c2ccccc2nc2n1C(O)c1cc3ccccc3nc1-2 (configuration not stated)
IC50 (A549 [3]): 9 mg/L (≈ 29.9 µM)

Compound: COc1ccc2c3c([nH]c2c1)-c1nc2ccccc2c(=O)n1CC3
GI50 (786-0): 0.31 µM
GI50 (A549 [4]): 0.75 µM

Compound: O=c1c2cc(Cl)ccc2nc2n1CCc1c-2[nH]c2ccccc12
GI50 (OVCAR-4): 1.5 µM

Compound: CO[C@@H]1c2c([nH]c3ccccc23)-c2nc3ccccc3c(=O)n2[C@H]1O
IC50 (HL-60 [9]): 7.82 µM
IC50 (NCI-N87): 22.3 µM

Compound: O=c1c2ccccc2nc2n1CCc1c-2[nH]c2ccc(Br)cc12
GI50 (NCI-H460): 1.55 µM

Compound: O=c1c2ccccc2nc2n1CC[C@@H]2O
IC50 (MGC-803): 94.5 µM
